Measured values as given in ChEMBL document CHEMBL6127087 (Eur J Med Chem, 2024).
Calls of active or inactive are those of the source. The rule behind the calls is not given here.

Legend:
Cytochrome P450 3A4 = Cytochrome P450 3A4 (Homo sapiens, UniProt P08684); experiment: Inhibition of CYP3A4 in human liver microsomes using midazolam as substrate preincubated for 10 mins followed by NADPH addition and measured after 10 mins by LC-MS/MS analysis; assay type: ADME, Microsome
[1] = Stability in simulated intestinal fluid assessed as half-life; assay type: physicochemical
[2] = Cmax in male Sprague-Dawley rat at 10 mg/kg, iv measured after 24 hrs by LC-MS/MS analysis; assay type: ADME, organism-based; conditions: male, Sprague-Dawley, in vivo, read-out: Cmax
Mus musculus [3] = experiment: (§1) Anti-inflammatory activity in LPS-induced male C57BL/6 mouse model of acute […] injury assessed as reduction in MPO level in BALF at 2 to 6 mg/kg, IG preadministered with compound for 7 days followed by LPS administration and measured after 24 hrs by ELISA; assay type: functional, organism-based; conditions: dose 2-6 mg/kg, time 8.0 day
Mus musculus [4] = experiment: (§2) Anti-inflammatory activity in LPS-induced male C57BL/6 mouse model of acute […] injury assessed as reduction in infiltration of immune cells by measuring decrease in WBC count at 2 to 6 mg/kg, IG preadministered with compound for 7 days followed by LPS administration and measured after 24 hrs; assay type: functional, organism-based; conditions: dose 2-6 mg/kg, time 8.0 day
Mus musculus [5] = experiment: (§3) Anti-inflammatory activity in LPS-induced male C57BL/6 mouse model of acute […] injury assessed as inhibition of CXCL9 mRNA expression at 2 to 6 mg/kg, IG preadministered with compound for 7 days followed by LPS administration and measured after 24 hrs by RT-PCR analysis; assay type: functional, organism-based; conditions: dose 2-6 mg/kg, time 8.0 day
[6] = AUC (0 to 24 hrs) in male Sprague-Dawley rat at 20 mg/kg, po measured after 24 hrs by LC-MS/MS analysis; assay type: ADME, organism-based; conditions: male, Sprague-Dawley, in vivo
Mus musculus [7] = experiment: Anti-inflammatory activity in LPS-induced male C57BL/6 mouse model of acute […] injury assessed as inhibition of CXCL10 mRNA expression at 2 to 6 mg/kg, IG preadministered with compound for 7 days followed by LPS administration and measured after 24 hrs by RT-PCR analysis; assay type: functional, organism-based; conditions: dose 2-6 mg/kg, time 8.0 day
[8] = biological target: P2Y purinoceptor 2 (Homo sapiens) (UniProt P41231); experiment: Antagonist activity at human P2Y2R stably expressed in HEK293 cells assessed as inhibition of UTP-induced IP3 accumulation preincubated with compound for 30 mins followed by UTP addition by ELISA; assay type: functional, cell-based
[9] = biological target: Voltage-gated inwardly rectifying potassium channel KCNH2 (Homo sapiens, UniProt Q12809); experiment: Inhibition of human ERG by PatchXpress analysis; assay type: toxicity
Mus musculus [10] = experiment: Anti-inflammatory activity in LPS-induced male C57BL/6 mouse model of acute […] injury assessed as reduction in dsDNA level in BALF at 2 to 6 mg/kg, IG preadministered with compound for 7 days followed by LPS administration and measured after 24 hrs by ELISA; assay type: functional, organism-based; conditions: dose 2-6 mg/kg, time 8.0 day
Mus musculus [11] = experiment: as §1, with “lung permeability by measuring tight junction associated proteins” for “MPO level in BALF”, “immunofluorescence analysis” for “ELISA”; assay type: functional, organism-based; conditions: dose 2-6 mg/kg, time 8.0 day
P2Y purinoceptor 6 [12] = biological target: T1, P2Y purinoceptor 6 (Homo sapiens, UniProt Q15077); experiment: Antagonist activity at human P2Y6R expressed in CHO cells assessed as inhibition of UDP sodium salt-induced Ca2+ level by FLIPR calcium 6 assay; assay type: functional, cell-based
[13] = Cmax in male Sprague-Dawley rat at 20 mg/kg, po measured after 24 hrs by LC-MS/MS analysis; assay type: ADME, organism-based; conditions: male, Sprague-Dawley, in vivo, read-out: Cmax
[14] = Stability in simulated gastric fluid assessed as half-life; assay type: physicochemical
Mus musculus [15] = experiment: Anti-inflammatory activity in LPS-induced male C57BL/6 mouse model of acute […] injury assessed as improvement in pulmonary edema by measuring reduction in wet to dry ratio of lung at 2 to 6 mg/kg, IG preadministered with compound for 7 days followed by LPS administration and measured after 24 hrs; assay type: functional, organism-based; conditions: dose 2-6 mg/kg, time 8.0 day
[16] = Half-life in male Sprague-Dawley rat at 10 mg/kg, iv measured after 24 hrs by LC-MS/MS analysis; assay type: ADME, organism-based; conditions: male, Sprague-Dawley, in vivo
Mus musculus [17] = experiment: as §2, with “lymphocytes” for “WBC”; assay type: functional, organism-based; conditions: dose 2-6 mg/kg, time 8.0 day
Mus musculus [18] = experiment: as §3, with “absence” for “inhibition”, “lesion in lung parenchyma” for “CXCL9 mRNA expression”, “H and E staining based histopathological” for “RT-PCR”; assay type: functional, organism-based; conditions: dose 2-6 mg/kg, time 8.0 day
Mus musculus [19] = experiment: Anti-inflammatory activity in LPS-induced male C57BL/6 mouse model of acute […] injury assessed as reduction in interstitial edema in lung at 2 to 6 mg/kg, IG preadministered with compound for 7 days followed by LPS administration and measured after 24 hrs by H and E staining based histopathological analysis; assay type: functional, organism-based; conditions: dose 2-6 mg/kg, time 8.0 day
P2Y purinoceptor 6 [20] = biological target: T1, P2Y purinoceptor 6; experiment: Binding affinity to P2Y6R (unknown origin) assessed as dissociation constant by SPR analysis
Mus musculus [21] = experiment: Anti-inflammatory activity in LPS-induced male C57BL/6 mouse model of acute […] injury assessed as inhibition of CCL2 release at 2 to 6 mg/kg, IG preadministered with compound for 7 days followed by LPS administration and measured after 24 hrs by ELISA; assay type: functional, organism-based; conditions: dose 2-6 mg/kg, time 8.0 day
P2Y purinoceptor 12 = P2Y purinoceptor 12 (Homo sapiens, UniProt Q9H244); experiment: Antagonist activity at human P2Y12R stably expressed in HEK293 cells assessed as inhibition of MeSADP-induced cAMP accumulation preincubated with compound for 30 mins followed by MeSADP addition by cAMP-GloTM assay; assay type: functional, cell-based
HUVEC = experiment: Cytotoxicity against HUVEC cells assessed as reduction in cell survival at >10 uM incubated for 12 to 24 hrs by CCK8 assay; assay type: toxicity, cell-based; conditions: human, time 12-24 hrs
[22] = biological target: T2, P2Y purinoceptor 14 (Homo sapiens) (UniProt Q15391); experiment: Antagonist activity at human P2Y14R stably expressed in HEK293 cells assessed as inhibition of UDPG-induced cAMP accumulation preincubated with compound for 30 mins followed by UDPG addition by cAMP-GloTM assay; assay type: functional, cell-based
T2 sequence (whole entry): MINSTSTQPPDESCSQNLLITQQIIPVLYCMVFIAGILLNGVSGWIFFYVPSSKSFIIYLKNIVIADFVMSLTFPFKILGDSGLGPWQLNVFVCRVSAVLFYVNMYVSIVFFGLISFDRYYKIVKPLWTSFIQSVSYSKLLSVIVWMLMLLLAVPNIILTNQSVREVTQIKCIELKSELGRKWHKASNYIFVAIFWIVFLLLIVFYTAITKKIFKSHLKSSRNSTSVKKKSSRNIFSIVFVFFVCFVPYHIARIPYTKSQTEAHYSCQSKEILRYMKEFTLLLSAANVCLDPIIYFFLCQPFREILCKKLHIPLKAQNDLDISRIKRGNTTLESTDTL

[23] = Metabolic stability in human liver microsomes assessed as half-life preincubated for 10 mins followed by NADPH addition and measured upto 60 mins by LC-MS/MS analysis; assay type: ADME, Microsome; conditions: time < 70 min
[24] = Oral bioavailability in male Sprague-Dawley rat at 20 mg/kg measured after 24 hrs by LC-MS/MS analysis; assay type: ADME, organism-based; conditions: male, Sprague-Dawley, in vivo
Mus musculus [25] = experiment: Anti-inflammatory activity in LPS-induced male C57BL/6 mouse model of acute […] injury assessed as inhibition of CXCL1 mRNA expression at 2 to 6 mg/kg, IG preadministered with compound for 7 days followed by LPS administration and measured after 24 hrs by RT-PCR analysis; assay type: functional, organism-based; conditions: dose 2-6 mg/kg, time 8.0 day
[26] = Half-life in male Sprague-Dawley rat at 20 mg/kg, po measured after 24 hrs by LC-MS/MS analysis; assay type: ADME, organism-based; conditions: male, Sprague-Dawley, in vivo

T1 sequence (Q15077 whole entry): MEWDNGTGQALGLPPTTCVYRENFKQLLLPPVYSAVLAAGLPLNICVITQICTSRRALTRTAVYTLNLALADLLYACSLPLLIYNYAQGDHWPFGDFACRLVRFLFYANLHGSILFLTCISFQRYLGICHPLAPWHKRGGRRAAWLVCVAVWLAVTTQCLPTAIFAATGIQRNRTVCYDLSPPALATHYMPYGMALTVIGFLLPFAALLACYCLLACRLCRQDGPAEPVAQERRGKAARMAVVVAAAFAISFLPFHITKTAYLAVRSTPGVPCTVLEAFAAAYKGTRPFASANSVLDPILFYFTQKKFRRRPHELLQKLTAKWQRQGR
Chain of Voltage-gated inwardly rectifying potassium channel KCNH2 (Q12809 whole entry): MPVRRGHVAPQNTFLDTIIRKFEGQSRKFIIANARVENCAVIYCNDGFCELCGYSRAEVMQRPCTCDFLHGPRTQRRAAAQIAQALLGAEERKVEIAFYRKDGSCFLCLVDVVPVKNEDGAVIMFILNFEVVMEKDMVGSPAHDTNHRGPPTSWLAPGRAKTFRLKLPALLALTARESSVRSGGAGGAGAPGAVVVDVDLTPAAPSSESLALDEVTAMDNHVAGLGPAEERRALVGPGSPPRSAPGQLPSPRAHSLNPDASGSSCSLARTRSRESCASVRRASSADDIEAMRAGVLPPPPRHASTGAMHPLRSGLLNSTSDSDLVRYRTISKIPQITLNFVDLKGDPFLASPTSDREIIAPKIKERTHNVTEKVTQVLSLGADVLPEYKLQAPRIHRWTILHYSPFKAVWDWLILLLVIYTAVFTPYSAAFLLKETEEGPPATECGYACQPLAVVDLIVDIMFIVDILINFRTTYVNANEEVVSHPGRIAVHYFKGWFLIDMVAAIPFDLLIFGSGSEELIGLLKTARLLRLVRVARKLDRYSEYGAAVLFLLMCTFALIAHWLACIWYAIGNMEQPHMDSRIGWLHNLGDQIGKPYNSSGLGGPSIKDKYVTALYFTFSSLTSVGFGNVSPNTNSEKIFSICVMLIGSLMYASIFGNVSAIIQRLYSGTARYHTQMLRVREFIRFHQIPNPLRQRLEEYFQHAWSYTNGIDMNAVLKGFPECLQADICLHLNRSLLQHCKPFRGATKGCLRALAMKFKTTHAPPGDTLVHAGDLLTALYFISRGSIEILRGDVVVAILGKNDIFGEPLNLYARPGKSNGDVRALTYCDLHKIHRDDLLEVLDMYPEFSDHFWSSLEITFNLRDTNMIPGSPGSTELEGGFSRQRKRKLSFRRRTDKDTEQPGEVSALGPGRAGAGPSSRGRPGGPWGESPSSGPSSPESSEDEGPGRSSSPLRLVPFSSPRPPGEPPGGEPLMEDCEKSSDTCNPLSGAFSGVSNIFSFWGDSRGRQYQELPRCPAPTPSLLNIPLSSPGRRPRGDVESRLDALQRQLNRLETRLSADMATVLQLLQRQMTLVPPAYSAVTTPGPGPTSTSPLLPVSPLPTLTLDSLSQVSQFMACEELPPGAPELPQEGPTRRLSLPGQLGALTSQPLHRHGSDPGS
Chain of Cytochrome P450 3A4 (P08684 whole entry): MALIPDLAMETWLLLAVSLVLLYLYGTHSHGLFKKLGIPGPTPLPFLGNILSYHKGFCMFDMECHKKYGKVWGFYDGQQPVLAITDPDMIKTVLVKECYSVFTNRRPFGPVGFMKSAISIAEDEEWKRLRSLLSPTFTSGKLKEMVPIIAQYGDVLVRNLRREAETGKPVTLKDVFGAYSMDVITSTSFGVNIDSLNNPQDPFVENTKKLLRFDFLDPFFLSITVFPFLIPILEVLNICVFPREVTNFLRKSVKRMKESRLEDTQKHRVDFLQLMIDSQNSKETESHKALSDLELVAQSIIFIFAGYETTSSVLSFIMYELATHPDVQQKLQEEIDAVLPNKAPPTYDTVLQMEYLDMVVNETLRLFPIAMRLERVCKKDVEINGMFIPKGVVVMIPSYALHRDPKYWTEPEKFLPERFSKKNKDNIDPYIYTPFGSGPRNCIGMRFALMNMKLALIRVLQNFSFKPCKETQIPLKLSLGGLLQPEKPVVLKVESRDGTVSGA
Chain of P2Y purinoceptor 2 (Homo sapiens) (P41231 whole entry): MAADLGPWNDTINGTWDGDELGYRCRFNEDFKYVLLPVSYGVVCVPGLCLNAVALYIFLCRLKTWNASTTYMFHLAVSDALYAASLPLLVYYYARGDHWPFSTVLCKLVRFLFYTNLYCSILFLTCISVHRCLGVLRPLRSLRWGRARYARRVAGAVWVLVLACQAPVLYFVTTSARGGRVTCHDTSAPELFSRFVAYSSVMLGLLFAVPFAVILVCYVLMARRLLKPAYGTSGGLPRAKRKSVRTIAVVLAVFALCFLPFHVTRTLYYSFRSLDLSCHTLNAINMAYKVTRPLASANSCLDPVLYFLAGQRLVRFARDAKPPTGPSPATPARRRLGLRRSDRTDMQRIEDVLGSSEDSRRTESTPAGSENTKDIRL
Chain of P2Y purinoceptor 12 (Q9H244 whole entry): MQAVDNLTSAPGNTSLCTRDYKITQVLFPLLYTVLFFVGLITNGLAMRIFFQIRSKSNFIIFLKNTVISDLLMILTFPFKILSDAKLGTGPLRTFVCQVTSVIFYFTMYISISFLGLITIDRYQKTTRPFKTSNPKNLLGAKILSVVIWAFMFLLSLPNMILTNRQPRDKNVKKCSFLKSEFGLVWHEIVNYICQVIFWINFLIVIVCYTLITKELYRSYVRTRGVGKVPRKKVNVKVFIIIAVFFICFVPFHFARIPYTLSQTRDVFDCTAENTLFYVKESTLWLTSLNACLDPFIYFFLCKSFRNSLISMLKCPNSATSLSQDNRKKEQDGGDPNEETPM

`O=C(O)CCC(=O)N1N=C(c2ccc[nH]2)CC1c1cnc2ccccc2c1` (centres undefined) showed an IC50 (Cytochrome P450 3A4) greater than 50000 nM, a half-life [1] greater than 5 h and a Cmax [2] of 1410 ng/mL. The Activity (Mus musculus [3]) was “Active”, the Activity (Mus musculus [4]) was “Active” and the Activity (Mus musculus [5]) was “Active”. For the same compound, the AUC(0-t) at 24 h [6] was 2980 ng·h/mL, the Activity (Mus musculus [7]) was “Active” and the Activity [8] was “inactive”. For the same compound, the IC50 [9] was greater than 50000 nM, the Activity (Mus musculus [10]) was “Active” and the Activity (Mus musculus [11]) was “Active”. The IC50 (P2Y purinoceptor 6 [12]) was 19.6 nM, the Cmax [13] was 2940 ng/mL and the half-life [14] was greater than 50 h. The Activity (Mus musculus [15]) was “Active”, the half-life [16] was 1.5 h and the Activity (Mus musculus [17]) was “Active”. The Activity (Mus musculus [18]) was “Active”, the Activity (Mus musculus [19]) was “Active” and the Kd (P2Y purinoceptor 6 [20]) was 1400 nM. For the same compound, the Activity (Mus musculus [21]) was “Active”, the Activity (P2Y purinoceptor 12) was “inactive” and the Activity (HUVEC) was “Non-Toxic”. For the same compound, the Activity [22] was “inactive”, the half-life [23] was 3.55 h and the bioavailability [24] was 43%. The Activity (Mus musculus [25]) was “Active” and the half-life [26] was 5.2 h.
